Residues, ends and D or L forms follow the SMILES beside them. *: point of attachment. Cbz = O=C(OCc1ccccc1)*; CH2F = FC*
What was measured:
PANC-1 and KP4 cells = assay: Cell death manner assay (co-treatment with death pathway inhibitors, CCK-8); type: cell-based; conditions: 10 µM Z-VAD-FMK, 5 mM 3-MA, 10 µM Nec-1, 10 µM Fer-1 with ZQJ29, 24 h
Protocol: To investigate the mechanism of ZQJ29 in pancreatic cancer proliferation inhibition, the manners of cell death were analyzed. The cell apoptosis inhibitor Z‐VAD‐FMK, cell autophagy inhibitor 3‐methyladenine, cell necrosis inhibitor necrostatin‐1, cell ferroptosis inhibitor Ferrostatin‐1, and cell ferroptosis agonist Erastin were purchased […] (MCE, USA) and stored at −20 °C. PANC‐1 and KP4 cells were seeded with a density of 2000 cells/100 µL well^−1 into 96 well plates. After 24 h, 10 µM Z‐VAD‐FMK, 5 mM 3‐methyladenine, 10 µM necrostatin‐1, 10 µM Ferrostatin‐1, and 10 µM Erastin were added and co‐incubated with ZQJ29 (1 µM), respectively, for 24 h. Then, 10 µL CCK‐8 was added and incubated at 37 °C for an additional 1 h, the absorbance was measured at 450 nm. The percentage of viability was calculated.

LX2 = assay: CCK-8 cytotoxicity assay, LX2 (normal cell line); type: cell-based
Protocol: (§1) Cell viability was evaluated using the Cell Counting Kit‐8 (Beyotime, Shanghai, China) assay. Cells were seeded in 96‐well plates at a density of 2×10^3 cells to allow for attachment. After treatment with ZQJ29 (0.001, 0.01, 0.1, 10, and 25 µM) for 24, 48, and 72 h, 10 µL of CCK‐8 solution was added to each well and incubated for 1 h. The optical density values were then measured at 450 nm using a multifunctional enzyme‐linked immunosorbent assay reader (Tecan, Spark, Switzerland).

THLE-2 = assay: CCK-8 cytotoxicity assay, THLE-2 (normal cell line); type: cell-based; conditions: 72 h
Protocol: as §1

MCF = assay: CCK-8 cytotoxicity assay, MCF; type: cell-based; conditions: 72 h
Protocol: as §1

HeLa = assay: CCK-8 cytotoxicity assay, HeLa; type: cell-based; conditions: 72 h
Protocol: as §1

HEK-293T = assay: CCK-8 cytotoxicity assay, HEK-293T (normal cell line); type: cell-based; conditions: 72 h
Protocol: as §1

PANC-1 = assay: CCK-8 cytotoxicity assay, PANC-1; type: cell-based; conditions: PANC-1, 72 h, average of 3 parallel tests
Protocol: as §1

KP4 = assay: CCK-8 cytotoxicity assay, KP4; type: cell-based; conditions: KP4, 72 h, average of 3 parallel tests
Protocol: as §1

H1975 = assay: CCK-8 cytotoxicity assay, H1975; type: cell-based
Protocol: as §1

HCT116 = assay: CCK-8 cytotoxicity assay, HCT116; type: cell-based; conditions: HCT116, 72 h
Protocol: as §1

HPDE6-C7 = assay: CCK-8 cytotoxicity assay, HPDE6-C7 (normal cell line); type: cell-based
Protocol: as §1

JHH7 = assay: CCK-8 cytotoxicity assay, JHH7; type: cell-based; conditions: JHH7, 72 h
Protocol: as §1

A549 = assay: CCK-8 cytotoxicity assay, A549; type: cell-based; conditions: A549, 72 h
Protocol: as §1

[1] = set-up: method as in PMID 38859952; conditions: DHA; cited from earlier work
PANC-1 tumors = assay: PANC-1 subcutaneous xenograft antitumor activity; type: in vivo, BALB/c nude mice; conditions: vs control
Protocol: (§2) Five‐week‐old male BALB/c nude mice were purchased from Shanghai Jihui Laboratory Animal Breeding Co., Ltd. (Shanghai, China). After a one‐week acclimatization period, PANC‐1 cells were subcutaneously injected at a dose of 5 × 10^6 cells per mouse. Four weeks post‐injection, once tumor volumes reached 50–100 mm^3, the tumor‐bearing animals were randomly divided into four groups, each consisting of six animals. ZQJ29 was prepared in a 0.5% CMC‐Na solution, while OXA was dissolved in saline. The control group was treated with oral gavage of 0.5% CMC‐Na, while the positive control group was administered intraperitoneal injections of OXA at a dosage of 3 mg kg^−1 every three days. The test groups were treated with oral gavage of ZQJ29 at dosages of 25 and 50 mg kg day^−1. Mouse weights were monitored every other day. Tumor measurements were taken every other day using calipers, and the tumor volume was calculated using the following formula: ½ × length × width^2. Drug administered continued for three weeks. After blood collection at the end of the administration, the mice were humanely euthanized, and their vital organs were promptly harvested, preserved, and embedded in paraffin for H&E staining.

[2] = Toxicity in tumor-bearing mice (body weight, ALT/AST, H&E); type: in vivo, BALB/c nude mice
Protocol: as §2
Following the experiments, organs from mice, including hearts, livers, spleens, lungs, and kidneys were swiftly collected and fixed in 4% paraformaldehyde overnight. The tissues were then embedded in paraffin. Afterward, 4‐µm‐thick sections were produced and stained using H&E. Images of these sections were captured with a Leica DM4000b microscope (Germany).
Blood samples were collected and placed in a biochemical incubator for 30 min, followed by centrifugation at 6000 rpm for 10 min. The supernatant was used to measure the following indicators: ALT and AST (both from Jiancheng, Nanjing, China).

Cn1cnc(N)c2ncnc1-2 [3‐MA, 3‐methyladenine]
reversal of ZQJ29-induced cell death by co-treatment (PANC-1 and KP4 cells): did not reverse

N.N.[Cl][Pt][Cl] [DDP]
IC50 (LX2; 72 h): > 10 µM
IC50 (THLE-2): 1.46 ± 0.984 µM
IC50 (MCF): 0.036 ± 0.028 µM
IC50 (HeLa): 0.282 ± 0.11 µM
IC50 (HEK-293T): > 10 µM
IC50 (PANC-1): > 10 µM
IC50 (KP4): > 10 µM
IC50 (H1975; H1975, 72 h): > 10 µM
IC50 (HCT116): 0.071 ± 0.042 µM
IC50 (HPDE6-C7; 72 h): > 10 µM
IC50 (JHH7): > 10 µM
IC50 (A549): > 10 µM

C[C@H]1[C@@H](O)O[C@@H]2O[C@@]3(C)CC[C@H]4[C@H](C)CC[C@@H]1[C@@]24OO3 [DHA, dihydroartemisinin]
IC50 (LX2; Homo sapiens, LX-2, 72 h): > 10 µM
IC50 (THLE-2; Homo sapiens): 8.66 ± 0.714 µM
IC50 (MCF): > 10 µM
IC50 (HeLa; Homo sapiens): > 10 µM
IC50 (HEK-293T; Homo sapiens): > 10 µM
IC50 (PANC-1; Homo sapiens): > 10 µM
IC50 (KP4; Homo sapiens, KP-4): > 10 µM
IC50 (H1975; Homo sapiens, NCI-H1975, 72 h): > 10 µM
IC50 (HCT116; Homo sapiens, HCT-116): > 10 µM
IC50 (HPDE6-C7; HPDE6c7, 72 h): > 10 µM
t1/2 [1]: 30 min
IC50 (JHH7): > 10 µM
IC50 (A549; Homo sapiens): > 10 µM

CCOC(=O)c1ccc(NC2CCCCC2)c(N)c1 [Fer‐1, Ferrostatin‐1]
reversal of ZQJ29-induced cell death by co-treatment (PANC-1 and KP4 cells): reversed

CN1C(=O)C(Cc2c[nH]c3ccccc23)NC1=S (stereo not drawn) [Nec‐1, necrostatin‐1]
reversal of ZQJ29-induced cell death by co-treatment (PANC-1 and KP4 cells): did not reverse

O=C1[O][Pt]2([NH][C@@H]3CCCC[C@H]3[NH]2)[O]C1=O [OXA, oxaliplatin]
IC50 (LX2; 72 h): 2.46 ± 0.56 µM
tumor growth (PANC-1 tumors; ZQJ29 25 and 50 mg/kg/day oral gavage, OXA 3 mg/kg i.p. every three days, three weeks): effectively inhibited
expression of Ki67 and PCNA in tumor tissue (IHC) (PANC-1 tumors; after treatment): significantly reduced
IC50 (THLE-2): 0.777 ± 0.188 µM
IC50 (MCF): 0.196 ± 0.087 µM
post-experiment levels of ALT and AST ([2]; ZQJ29 50 mg/kg, OXA 3 mg/kg i.p.): significantly elevated
body weight during the whole treatment period ([2]; tumor-bearing nude mice, three weeks): decreased significantly
IC50 (HeLa): 0.51 ± 0.121 µM
IC50 (HEK-293T): > 10 µM
IC50 (PANC-1): > 10 µM
IC50 (KP4): > 10 µM
IC50 (H1975; H1975, 72 h): 3.49 ± 0.552 µM
IC50 (HCT116): 0.103 ± 0.026 µM
IC50 (HPDE6-C7; 72 h): 2.7 ± 0.567 µM
IC50 (JHH7): 7.15 ± 2.6 µM
IC50 (A549): 2.47 ± 0.41 µM

CC1CCC2C(C)C(OCCNCCOC3OC4OC5(C)CCC6C(C)CCC(C3C)C46OO5)OC3OC4(C)CCC1C32OO4 (stereo not drawn) [SM1044]
IC50 (LX2; Homo sapiens, LX-2, 72 h): > 10 µM
IC50 (THLE-2; Homo sapiens): > 10 µM
IC50 (MCF): 1.33 ± 0.303 µM
IC50 (HeLa; Homo sapiens): 2.29 ± 0.429 µM
IC50 (HEK-293T; Homo sapiens): > 10 µM
IC50 (PANC-1; Homo sapiens): 5.95 ± 0.501 µM
IC50 (KP4; Homo sapiens, KP-4): 3 ± 0.799 µM
IC50 (H1975; Homo sapiens, NCI-H1975, 72 h): 6.88 ± 0.014 µM
IC50 (HCT116; Homo sapiens, HCT-116): 4.98 ± 2.36 µM
IC50 (HPDE6-C7; HPDE6c7, 72 h): > 10 µM
IC50 (JHH7): 2.13 ± 0.573 µM
IC50 (A549; Homo sapiens): 3.45 ± 1.76 µM

COC(=O)C[C@H](NC(=O)[C@H](C)NC(=O)[C@@H](NC(=O)OCc1ccccc1)C(C)C)C(=O)CF [Z‐VAD‐FMK] (Cbz-Val-Ala-Asp(OMe)-CH2F)
reversal of ZQJ29-induced cell death by co-treatment (PANC-1 and KP4 cells): did not reverse
